Legend:
[1] = system: embryogenic cells, cell-line 06:28:05; assay: Comparison of inositol with other sugar alcohols and with sucrose on solid DKM+ABA maturation medium (Example 3); assay type: cell-based, Norway spruce
From the text: The action of 0.25, M inositol in improving somatic embryo quality is likely to be partly osmotic, partly nutritional, with cell signaling effects also involved. The inventors tested whether 0.25, M inositol could be replaced with 0.25, M of other sugar alcohols (mannitol and sorbitol) or 0.25, M extra sucrose by spreading 1.0, to 1.5, g fresh weight of embryogenic cells, cell-line 06:28:05, on each of six plates of solid DKM+ABA maturation medium for continued growth and development over four weeks, with one subculture after 2, weeks. The cells were then subcultured onto three plates each (1.0-1.5, g cells per plate) of medium containing in addition either a) 0.25, M inositol, or b) 0.125, M mannitol and 0.125, M sorbitol, or c) 0.25, M sucrose. Control cells continued on standard medium. After three weeks, embryos of good quality were transferred to germination medium, ten embryos per petri dish, as a rough quantitative estimate of quality.

[2] = system: embryogenic callus of Norway spruce, cell-lines 61:21, 19:01 and 28:05; assay: Inositol concentration series on maturation medium, embryo quality measurements (Example 4); assay type: cell-based; details: for root development, indicating premature germination: FIG. 2a-c
From the text: To investigate how various inositol concentrations synchronize embryo development and affect the quality of the developing embryos, three cell-lines of embryogenic callus of Norway spruce, cell-lines 61:21, 19:01, and 28:05, were exposed to 1, week on prematuration medium, and matured for 40, days, 36, days or 33, days, respectively on maturation medium with subculturing every two weeks. Small clumps about 1, cm diameter of maturing embryos were then subcultured on maturation medium containing 0.0005, M (here denoted 0, M), 0.06, M, 0.1, M, 0.2, M, 0.25, M or […] inositol.
Twenty individual mature embryos or small plantlets were picked randomly from the plates and the following measurements were taken, for quality measurement, see FIG. 1: width of hypocotyls (1), width across the cotyledons one third of the way down of the hypocotyls (2), width across the cotyledons two third of the way down of the hypocotyls (3) and length of the hypocotyls (4), length of root (5).

somatic embryo cultures = assay: Embryo culture in medium with plasmolytic or near plasmolytic concentration of sugar alcohol (general findings); assay type: cell-based
From the text: The invention is based on a serendipitous discovery. Gene transfer to spruce somatic embryos using a particle gun was experimented with, using a special medium originally designed for use with gene transfer for embryogenic cultures, containing 0.25, M myo-inositol. The resulting plasmolysis reduces damage during penetration by the gold particles, since it relaxes the tension in the cell membranes and minimizes tearing. By mistake, the somatic embryos were left in this medium for 12, days instead of returning them to the normal proliferation medium as intended. […] Consequently, the cells are first plasmolyzed and then gradually deplasmolyzed.

[3] = system: embryos of cell-line 28:05; assay: Growth of germinated inositol-treated embryos in stonewool pots for three months (Example 5); assay type: in vivo, Norway spruce
Experimental: Embryos of cell-line 28:05, treated with 0.25, M inositol and germinated in vitro as described above were grown on in stonewool in plastic pots 8×8×10, cm with standard commercial mineral nutrition in a growth chamber in continuous light at 20° C. for three months.

[4] = system: Mexican Yellow Pine, Pinus oocarpa, line 2; assay: Corresponding inositol experiments with Mexican Yellow Pine (Example 6); assay type: cell-based; details: inositol series as for Scots pine
[5] = system: embryogenic callus of Scots pine, Pinus sylvestris, cell-line 42:6:3; assay: Inositol concentration series on DCR maturation medium and germination on DKM (Example 6); assay type: cell-based
From the text: In order to verify the broad use of the newly invented method, additional conifers have been tested by adapting the methods of Examples 4, and 5. Embryogenic callus of Scots pine, Pinus sylvestris, cell-line 42:6:3, was proliferated on DCR medium (Burg et al. 2007:, J. Exp. Bot. 58: 687-698) containing 2,4-D and BA at the same concentrations as described for spruce. The cells were taken through the early maturation step on DCR medium containing 7.5% polyethylene glycol 400, 3% maltose (replacing sucrose) and 16, mg per liter abscisic acid (Burg et al. 2007:, J. Exp. Bot. 58: 687-698). Samples of cells were then exposed to the same medium containing inositol at concentrations of 0.0005, M 0.1, M, 0.2, M, 0.25, M, 0.3, M or 0.5 M for four weeks. […] Somatic embryogenesis is more problematic in pine than in spruce, so that experiments with mature embryos were on a small scale.

[6] = system: somatic embryos of Norway spruce, cell line 06:28:05; assay: Mature embryos left 12 days in maturation medium with 0.25 M inositol after particle bombardment (Example 1); assay type: cell-based
From the text: The aim of the experiment was to infect somatic embryos of Norway spruce with a virus using a particle gun according to a routine method (Clapham et al. 2000: Scand. J. For. Res. 15:151-160) and derive plants containing the virus. The original standard bombardment procedure was developed for the transformation of embryogenic cultures consisting of immature embryos (i.e. proembryonic masses or PEMs). In the original protocol, from one to two hours before bombardment with gold particles coated with DNA, the cells are temporarily plasmolyzed with 0.25 M myo-inositol in proliferation medium (Table 4) to reduce damage from the penetration of the gold particles.
In the present experiment, mature embryos instead of PEMs were bombarded. The cultures of cell line 06:28:05, had been matured on standard DKM medium containing ABA for 50, days before bombardment. The embryos were exposed to medium containing 0.25, M inositol for 1-2, hours before bombardment. After bombardment the cells were unintentionally left in maturation medium containing 0.25, M inositol for 12, days, then returned to standard DKM medium containing ABA. […] About 50 plantlets with more or less well developed roots were planted out at once in pots containing mineral wool, which is not usually possible; fifteen of these survived and continued to grow. Sixty-two additional plantlets were grown aseptically on solid standard germination medium (quarter strength Schenk and Hildebrandt) to develop the root system for about 2, months; 51, of these grew well enough to plant out in pots of mineral wool. At least 48, of the plants were growing vigorously a month later. The appearance of these somatic embryo-derived plants encouraged the inventors to believe that mature embryos exposed to the relatively high concentration of inositol in the present experiment were of unusually high quality and ready for germination, without partial drying under high humidity for 2-3, weeks as in the standard procedure.

[7] = high concentrations of inositol

O[C@H]1[C@H](O)[C@@H](O)[C@H](O)[C@@H](O)[C@H]1O [inositol, cis-1,2,3,5-trans-4,6-cyclohexanehexol]
embryos of good quality relative to mannitol plus sorbitol ([1]; 0.25 M inositol vs 0.125 M mannitol plus 0.125 M sorbitol): about twice | Plates with 10 high quality embryos ([1]; addition to standard medium: 0.25 M (or 0.125 M + 0.125 M), three weeks, three plates of 1.0-1.5 g cells per treatment): 6 | effect on embryo development (summary) ([2]; 0.2-0.3 M inositol): synchronized development of the embryos by inhibiting germination but not embryo development | root development, indicating premature germination ([2]; 0.2-0.3 M inositol): inhibited almost completely | ratio of width one third down the hypocotyl (2) to width two thirds down the hypocotyl (3) ([2]; 0.2-0.3 M inositol, FIG. 5a-c): just above unity | coefficient of variation of width across the cotyledons (minimum) ([2]; cell-line 28:05, 0.25 M inositol, FIG. 4): 35% | inositol concentration at which the coefficient of variation of hypocotyl length is at a minimum (synchrony maximal) ([2]; cell-line 61:21, FIG. 3): 0.25 M | root development, indicating premature germination ([2]; low concentrations of inositol): present | variation in hypocotyl length ([2]; the other two cell-lines (19:01, 28:05), higher concentrations of inositol): reduced markedly | need for partial drying before germination (somatic embryo cultures; [7]): require no further partial drying before germination | quality of mature embryos formed (somatic embryo cultures; high concentrations of inositol (myo-inositol) in the culture media): more robust mature embryos with improved rooting capabilities | effect on maturation in the embryo cultures (somatic embryo cultures; plasmolytic or near plasmolytic concentration): induce synchronous maturation | condition of plants after three months in stonewool ([3]; 0.25 M inositol, growth chamber, continuous light, 20° C.): vigorous and healthy | longer term effects on subsequent growth [3, 7]: no unexpected longer term effects on subsequent growth | outcome compared with the Scots pine experiments [4]: showed the same tendencies | signs of premature germination (hypocotyl extension, greening of cotyledons) ([5]; 0.0005 M and 0.1 M inositol, four weeks): some of the embryos showed characteristic signs of premature germination | maturation and precocious germination ([5]; 0.2-0.3 M inositol, four weeks): precocious germination was inhibited | proportion of embryos that developed healthy roots on the germination medium, compared with 0.0005 M ([5]; 0.25 M inositol): higher proportion | signs of stress (red colour under the cotyledons) within two days of germination on DKM ([5]; 0.25 M inositol): no such signs of stress | condition of embryos compared with those exposed to 0.0005 M inositol ([5]; 0.25 M inositol, groups of ten embryos germinated on DKM): in better condition | effect on further maturation of the embryos ([5]; 0.5 M inositol): inhibited further maturation of the embryos | embryo appearance compared with embryos from the standard protocol ([6]; 0.25 M inositol): strikingly more uniform and broader in relation to length | plantlets that survived and continued to grow after being planted out at once in pots containing mineral wool ([6]; 0.25 M inositol 12 days, of about 50 plantlets planted out): fifteen | plantlets that grew well enough to plant out in pots of mineral wool ([6]; 0.25 M inositol 12 days, of sixty-two plantlets grown about 2 months on solid germination medium): 51 | plants growing vigorously a month later ([6]; 0.25 M inositol 12 days, of the 51 planted out in mineral wool): At least 48 | germination after return to standard DKM medium containing ABA ([6]; 0.25 M inositol for 12 days, observed after 8 days on standard DKM+ABA): many embryos had germinated and formed healthy well developed small plantlets

Reference: patent publication US9125352B2, “Method for maturing and synchronizing conifer somatic embryos” (SweTree Technologies AB, priority 2010, dated 2015)
